Source: ChEMBL document CHEMBL1201862, “PubChem BioAssay data set” (2004)
Active and inactive are the calls of the source.

What was measured:
[1] = target: T1, Dual specificity protein phosphatase 3 (Homo sapiens, UniProt P51452); test: VHR1 phosphatase inhibitors, primary screen, biochemical, absorbance, uHTS (AID 1654)
[2] = target: T1, Dual specificity protein phosphatase 3; test: VHR1 phosphatase inhibitors, biochemical (AID 1878)
[3] = target: T2, Dual specificity protein phosphatase 6 (Rattus norvegicus, UniProt Q64346); test: MKP-3 phosphatase inhibitors, primary screen, biochemical, rat enzyme, in vitro (AID 425)
T2 sequence (Q64346 whole entry): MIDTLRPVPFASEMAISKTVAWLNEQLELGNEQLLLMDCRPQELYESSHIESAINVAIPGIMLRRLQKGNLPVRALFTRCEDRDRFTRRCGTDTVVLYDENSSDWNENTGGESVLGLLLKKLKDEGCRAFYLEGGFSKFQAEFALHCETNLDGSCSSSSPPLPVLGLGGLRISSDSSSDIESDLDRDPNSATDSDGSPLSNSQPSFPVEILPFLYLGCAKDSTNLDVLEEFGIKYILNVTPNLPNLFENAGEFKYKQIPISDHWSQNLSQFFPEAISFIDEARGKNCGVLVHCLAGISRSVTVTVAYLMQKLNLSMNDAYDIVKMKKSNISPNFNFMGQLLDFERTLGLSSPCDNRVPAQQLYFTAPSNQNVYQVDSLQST

[4] = target: Genome polyprotein (dengue virus type 2, UniProt P29990); test: Dengue-2 NS5 methyltransferase inhibitors, primary screen, biochemical, confirmation dose response (AID 588689); type: functional
Chain of Genome polyprotein (P29990 2492-3391 limits assumed): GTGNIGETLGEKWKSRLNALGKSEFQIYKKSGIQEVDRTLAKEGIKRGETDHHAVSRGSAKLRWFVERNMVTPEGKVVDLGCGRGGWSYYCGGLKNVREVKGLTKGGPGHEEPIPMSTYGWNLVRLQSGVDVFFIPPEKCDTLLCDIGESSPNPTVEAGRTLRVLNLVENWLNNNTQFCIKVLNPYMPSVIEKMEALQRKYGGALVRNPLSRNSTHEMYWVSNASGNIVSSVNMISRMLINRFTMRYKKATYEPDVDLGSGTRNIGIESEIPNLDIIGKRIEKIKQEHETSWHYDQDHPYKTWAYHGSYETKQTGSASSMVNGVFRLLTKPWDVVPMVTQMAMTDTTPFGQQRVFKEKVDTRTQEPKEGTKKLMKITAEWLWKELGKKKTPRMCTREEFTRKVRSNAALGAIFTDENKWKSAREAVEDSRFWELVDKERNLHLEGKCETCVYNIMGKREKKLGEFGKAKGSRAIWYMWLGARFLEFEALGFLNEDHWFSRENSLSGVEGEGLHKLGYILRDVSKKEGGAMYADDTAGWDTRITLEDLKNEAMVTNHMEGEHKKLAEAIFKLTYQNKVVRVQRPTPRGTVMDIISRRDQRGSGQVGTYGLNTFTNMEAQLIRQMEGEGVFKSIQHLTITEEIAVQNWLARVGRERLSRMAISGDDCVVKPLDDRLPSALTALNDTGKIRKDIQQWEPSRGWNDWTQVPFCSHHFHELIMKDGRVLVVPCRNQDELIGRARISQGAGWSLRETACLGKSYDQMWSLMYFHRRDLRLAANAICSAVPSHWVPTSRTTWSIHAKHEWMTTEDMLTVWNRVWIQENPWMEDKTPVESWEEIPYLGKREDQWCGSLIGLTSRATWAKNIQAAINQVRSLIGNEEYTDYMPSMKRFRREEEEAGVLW

[5] = target: T3, Carboxy-terminal domain RNA polymerase II polypeptide A small phosphatase 1 (Homo sapiens, UniProt Q9GZU7); test: inhibitors of CTDSP1, concentration-response testing, biochemical assay, absorbance-based, actives from ultra-high-throughput screening (AID 540297); type: functional
T3 sequence (Q9GZU7 whole entry): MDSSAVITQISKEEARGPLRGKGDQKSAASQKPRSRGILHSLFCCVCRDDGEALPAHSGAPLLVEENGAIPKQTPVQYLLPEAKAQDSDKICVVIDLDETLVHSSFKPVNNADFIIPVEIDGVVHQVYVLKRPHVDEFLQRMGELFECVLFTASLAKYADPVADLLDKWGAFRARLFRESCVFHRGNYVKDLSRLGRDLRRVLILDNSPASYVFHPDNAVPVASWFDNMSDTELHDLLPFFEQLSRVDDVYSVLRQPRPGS

[6] = target: Tyrosine-protein phosphatase non-receptor type 11 (Homo sapiens, UniProt Q06124); test: SHP2 phosphatase inhibition, dose response, selectivity assay for STEP inhibitor project, biochemical (AID 602367); type: functional; settings: read-out: IC50_Mean
[7] = target: Tyrosine-protein phosphatase non-receptor type 5 (Homo sapiens, UniProt P54829); test: STEP phosphatase inhibitors, confirmation, biochemical, fluorescence intensity, uHTS hits (AID 602372); type: functional; settings: read-out: IC50_Mean
Chain of Tyrosine-protein phosphatase non-receptor type 5 (P54829 whole entry): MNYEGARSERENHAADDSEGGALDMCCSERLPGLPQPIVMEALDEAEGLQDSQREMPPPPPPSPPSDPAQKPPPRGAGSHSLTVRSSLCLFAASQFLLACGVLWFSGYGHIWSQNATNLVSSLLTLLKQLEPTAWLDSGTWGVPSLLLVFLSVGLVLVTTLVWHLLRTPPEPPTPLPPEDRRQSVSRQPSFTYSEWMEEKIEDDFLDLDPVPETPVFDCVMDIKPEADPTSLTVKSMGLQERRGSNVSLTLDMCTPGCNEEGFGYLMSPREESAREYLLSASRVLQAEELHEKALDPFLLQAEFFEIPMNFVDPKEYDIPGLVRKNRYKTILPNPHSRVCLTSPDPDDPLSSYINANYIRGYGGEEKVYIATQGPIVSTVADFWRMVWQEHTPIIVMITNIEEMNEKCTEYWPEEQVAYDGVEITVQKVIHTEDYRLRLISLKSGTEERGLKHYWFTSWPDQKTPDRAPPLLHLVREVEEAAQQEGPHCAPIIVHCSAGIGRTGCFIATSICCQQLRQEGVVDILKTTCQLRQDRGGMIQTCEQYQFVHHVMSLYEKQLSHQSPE

[8] = target: T1, Dual specificity protein phosphatase 3; test: VHR phosphatase inhibition, dose response, selectivity assay for STEP inhibitor project, biochemical (AID 602374); type: functional; settings: read-out: IC50_Mean
[9] = target: T4, Small ubiquitin-related modifier 1 (Homo sapiens, UniProt P63165); test: inhibitors of SUMO1 peptide binding, dose response, biochemical, fluorescence polarization, uHTS hits (AID 624382); type: functional; settings: read-out: IC50_Mean
T4 sequence (P63165 whole entry): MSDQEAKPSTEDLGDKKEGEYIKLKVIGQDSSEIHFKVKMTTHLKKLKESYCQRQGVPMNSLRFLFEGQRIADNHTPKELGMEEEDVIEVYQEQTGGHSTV

[10] = target: T5, Low molecular weight phosphotyrosine protein phosphatase (Homo sapiens, UniProt P24666); type: functional; settings: read-out: IC50_Mean
T5 sequence (P24666 whole entry): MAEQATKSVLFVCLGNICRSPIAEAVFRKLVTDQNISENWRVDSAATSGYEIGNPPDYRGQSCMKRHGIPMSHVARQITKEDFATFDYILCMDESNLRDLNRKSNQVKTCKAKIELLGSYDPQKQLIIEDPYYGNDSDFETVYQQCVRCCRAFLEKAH

[11] = target: T4, Small ubiquitin-related modifier 1; test: inhibitors of SUMO1 partner interactions, dose response, biochemical, FRET (AID 624383); type: functional; settings: read-out: IC50_Mean
[12] = target: T6, Tyrosine-protein phosphatase non-receptor type 22 (Homo sapiens, UniProt Q9Y2R2); test: PTPN22 phosphatase inhibition, dose response, selectivity assay for STEP inhibitor project, biochemical (AID 624241); type: functional
T6 sequence (Q9Y2R2 whole entry): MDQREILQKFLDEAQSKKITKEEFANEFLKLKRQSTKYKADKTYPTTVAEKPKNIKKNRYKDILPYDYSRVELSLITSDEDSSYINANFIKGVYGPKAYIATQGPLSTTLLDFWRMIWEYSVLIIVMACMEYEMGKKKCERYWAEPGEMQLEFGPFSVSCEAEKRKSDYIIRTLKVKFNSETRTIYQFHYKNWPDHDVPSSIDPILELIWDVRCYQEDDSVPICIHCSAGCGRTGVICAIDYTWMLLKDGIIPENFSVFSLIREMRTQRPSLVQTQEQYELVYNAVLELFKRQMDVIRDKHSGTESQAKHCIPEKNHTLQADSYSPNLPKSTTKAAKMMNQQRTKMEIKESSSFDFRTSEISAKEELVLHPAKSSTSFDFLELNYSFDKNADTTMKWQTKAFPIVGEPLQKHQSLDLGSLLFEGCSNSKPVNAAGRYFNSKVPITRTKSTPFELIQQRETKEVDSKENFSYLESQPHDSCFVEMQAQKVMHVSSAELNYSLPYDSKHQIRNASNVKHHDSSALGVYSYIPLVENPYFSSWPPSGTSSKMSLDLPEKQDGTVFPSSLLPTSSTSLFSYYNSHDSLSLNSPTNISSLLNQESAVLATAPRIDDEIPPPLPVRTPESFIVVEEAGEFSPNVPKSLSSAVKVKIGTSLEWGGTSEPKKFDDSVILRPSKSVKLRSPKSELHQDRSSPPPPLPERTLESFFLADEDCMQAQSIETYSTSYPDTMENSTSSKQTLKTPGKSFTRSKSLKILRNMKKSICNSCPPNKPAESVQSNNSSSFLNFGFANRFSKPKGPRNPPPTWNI

[13] = target: T5, Low molecular weight phosphotyrosine protein phosphatase; type: functional; settings: read-out: IC50_Mean; remark: listed apart in the source
[14] = target: T7, Caspase-6 (Homo sapiens, UniProt P55212); test: human caspase-6 inhibitors, dose response, biochemical, VEID-R110 fluorescence, cherry-pick (AID 720632)
T7 sequence (P55212 whole entry): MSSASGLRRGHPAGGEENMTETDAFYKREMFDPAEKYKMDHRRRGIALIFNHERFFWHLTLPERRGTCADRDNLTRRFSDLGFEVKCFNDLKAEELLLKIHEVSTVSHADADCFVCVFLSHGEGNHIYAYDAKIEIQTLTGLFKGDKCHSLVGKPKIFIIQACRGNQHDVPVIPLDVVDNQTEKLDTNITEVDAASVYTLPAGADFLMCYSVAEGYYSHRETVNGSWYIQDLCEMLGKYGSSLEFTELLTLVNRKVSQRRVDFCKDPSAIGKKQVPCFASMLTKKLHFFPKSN

[15] = target: T8, Beta-lactamase (Salmonella choleraesuis (strain SC-B67), UniProt Q5J463); test: Epi-absorbance-based counterscreen for selective VIM-2 inhibitors: dose response biochemical high throughput screening assay to identify inhibitors of TEM-1 serine-beta-lactamase.
T8 sequence (Q5J463 whole entry): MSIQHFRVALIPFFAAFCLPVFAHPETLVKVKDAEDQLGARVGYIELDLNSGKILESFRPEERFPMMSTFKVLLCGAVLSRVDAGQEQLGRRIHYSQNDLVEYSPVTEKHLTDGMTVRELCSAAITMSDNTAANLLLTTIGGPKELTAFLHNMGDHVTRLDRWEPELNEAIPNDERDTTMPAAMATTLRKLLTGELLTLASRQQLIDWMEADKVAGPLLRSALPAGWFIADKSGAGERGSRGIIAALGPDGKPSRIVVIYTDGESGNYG

[16] = target: T9, Beta-lactamase (Pseudomonas aeruginosa, UniProt Q79MP6); test: IMP-1 metallo-beta-lactamase inhibitors, dose response, selectivity assay for VIM-2 inhibitor project, biochemical, epi-absorbance (AID 1920)
T9 sequence (Q79MP6 whole entry): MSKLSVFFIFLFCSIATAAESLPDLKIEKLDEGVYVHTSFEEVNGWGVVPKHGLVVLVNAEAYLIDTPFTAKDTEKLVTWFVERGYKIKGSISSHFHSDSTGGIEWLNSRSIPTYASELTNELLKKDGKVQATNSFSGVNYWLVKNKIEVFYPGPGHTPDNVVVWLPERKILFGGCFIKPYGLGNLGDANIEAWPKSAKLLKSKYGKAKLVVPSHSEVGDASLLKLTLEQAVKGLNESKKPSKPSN

[17] = target: T9, Beta-lactamase; test: […] counterscreen for selective VIM-2 inhibitors: dose response biochemical high throughput screening assay to identify inhibitors of IMP-1 metallo-beta-lactamase.
[18] = target: Beta Lactamase (Pseudomonas aeruginosa, UniProt Q932Y6);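 note: confirmatory high-throughput screen measuring VIM-2 metallo-beta-lactamase inhibition by epi-absorbance in dose response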
Chain of Beta Lactamase (Q932Y6 whole entry): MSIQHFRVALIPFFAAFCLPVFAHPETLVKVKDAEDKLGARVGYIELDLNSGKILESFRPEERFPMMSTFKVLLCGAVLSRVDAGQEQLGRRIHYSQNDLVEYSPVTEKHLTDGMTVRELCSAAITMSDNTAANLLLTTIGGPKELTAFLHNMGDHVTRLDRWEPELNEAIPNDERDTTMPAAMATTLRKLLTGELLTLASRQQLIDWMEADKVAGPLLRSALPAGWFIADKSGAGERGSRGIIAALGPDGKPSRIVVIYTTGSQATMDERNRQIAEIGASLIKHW

[19] = target: T9, Beta-lactamase
[20] = target: T8, Beta-lactamase
[21] = target: T10, Sentrin-specific protease 1 (Homo sapiens, UniProt Q9P0U3); test: potency of human SENP1 inhibitors, dose response, biochemical, kinetic FRET (AID 651697); type: functional; settings: read-out: IC50_Mean
T10 sequence (Q9P0U3 whole entry): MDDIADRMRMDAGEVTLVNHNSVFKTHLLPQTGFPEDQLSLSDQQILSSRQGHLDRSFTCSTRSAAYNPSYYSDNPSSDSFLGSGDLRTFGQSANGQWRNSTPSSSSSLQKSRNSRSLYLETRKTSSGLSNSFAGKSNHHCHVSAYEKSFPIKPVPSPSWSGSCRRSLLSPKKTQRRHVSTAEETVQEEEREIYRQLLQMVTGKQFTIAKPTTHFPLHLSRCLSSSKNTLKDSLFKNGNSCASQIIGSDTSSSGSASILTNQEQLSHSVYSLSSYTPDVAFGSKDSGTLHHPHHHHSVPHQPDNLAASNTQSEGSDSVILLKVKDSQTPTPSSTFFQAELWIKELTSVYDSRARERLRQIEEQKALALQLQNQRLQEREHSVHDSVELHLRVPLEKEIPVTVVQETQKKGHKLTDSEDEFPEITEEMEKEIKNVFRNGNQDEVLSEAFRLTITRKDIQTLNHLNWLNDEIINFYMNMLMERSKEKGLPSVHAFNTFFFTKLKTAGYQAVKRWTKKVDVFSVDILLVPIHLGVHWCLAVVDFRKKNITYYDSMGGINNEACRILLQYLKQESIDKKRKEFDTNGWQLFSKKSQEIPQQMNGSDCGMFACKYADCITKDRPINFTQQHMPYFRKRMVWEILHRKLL

[22] = target: T10, Sentrin-specific protease 1; test: Dose response confirmation of small molecule inhibitors of the catalytic domain of the SUMO protease, SENP1 in a FRET assay.; type: functional; settings: read-out: IC50_Mean
[23] = target: ATP-dependent translocase ABCB1 (Homo sapiens, UniProt P08183); test: ABCB1 efflux pump inhibitor potency, dose response, Jurkat-DNR cells, JC-1, flow cytometry (AID 1689); type: functional
Chain of ATP-dependent translocase ABCB1 (P08183 whole entry): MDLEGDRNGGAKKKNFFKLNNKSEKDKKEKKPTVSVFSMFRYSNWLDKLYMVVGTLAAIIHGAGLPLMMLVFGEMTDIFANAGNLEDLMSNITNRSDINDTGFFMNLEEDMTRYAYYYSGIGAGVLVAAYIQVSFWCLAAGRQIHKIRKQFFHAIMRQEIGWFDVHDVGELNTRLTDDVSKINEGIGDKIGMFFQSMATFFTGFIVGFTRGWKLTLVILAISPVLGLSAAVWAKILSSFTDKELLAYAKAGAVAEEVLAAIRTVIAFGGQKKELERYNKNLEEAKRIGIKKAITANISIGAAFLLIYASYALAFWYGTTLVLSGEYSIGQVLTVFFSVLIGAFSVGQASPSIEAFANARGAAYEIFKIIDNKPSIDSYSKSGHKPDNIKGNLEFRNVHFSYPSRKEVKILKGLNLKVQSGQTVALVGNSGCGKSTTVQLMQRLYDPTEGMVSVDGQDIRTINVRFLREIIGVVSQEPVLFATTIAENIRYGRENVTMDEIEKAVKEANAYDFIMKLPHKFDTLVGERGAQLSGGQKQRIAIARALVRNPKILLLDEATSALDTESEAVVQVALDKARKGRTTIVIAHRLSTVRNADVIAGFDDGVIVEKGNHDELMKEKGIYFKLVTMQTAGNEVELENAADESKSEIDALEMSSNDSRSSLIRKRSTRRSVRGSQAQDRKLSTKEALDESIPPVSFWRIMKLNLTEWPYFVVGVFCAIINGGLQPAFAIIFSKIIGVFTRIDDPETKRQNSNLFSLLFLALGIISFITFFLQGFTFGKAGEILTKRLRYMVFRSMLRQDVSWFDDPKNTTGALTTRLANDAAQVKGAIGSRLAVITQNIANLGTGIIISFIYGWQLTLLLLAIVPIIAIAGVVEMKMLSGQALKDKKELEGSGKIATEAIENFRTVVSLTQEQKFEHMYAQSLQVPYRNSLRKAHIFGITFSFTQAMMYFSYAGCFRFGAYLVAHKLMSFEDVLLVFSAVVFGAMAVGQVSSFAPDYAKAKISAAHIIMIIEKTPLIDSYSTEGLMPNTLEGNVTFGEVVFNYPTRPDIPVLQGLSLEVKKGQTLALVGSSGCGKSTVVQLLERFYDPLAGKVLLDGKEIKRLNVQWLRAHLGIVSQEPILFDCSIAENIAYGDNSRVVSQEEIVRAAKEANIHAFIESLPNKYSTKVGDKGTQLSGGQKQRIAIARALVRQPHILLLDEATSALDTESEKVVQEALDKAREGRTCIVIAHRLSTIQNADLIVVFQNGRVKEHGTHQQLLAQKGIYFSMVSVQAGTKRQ

[24] = target: Broad substrate specificity ATP-binding cassette transporter ABCG2 (Homo sapiens, UniProt Q9UNQ0); test: ABCG2 efflux pump inhibitors, dose response, Ig-MXP3 cells, flow cytometry (AID 1690); type: functional
Chain of Broad substrate specificity ATP-binding cassette transporter ABCG2 (Q9UNQ0 whole entry): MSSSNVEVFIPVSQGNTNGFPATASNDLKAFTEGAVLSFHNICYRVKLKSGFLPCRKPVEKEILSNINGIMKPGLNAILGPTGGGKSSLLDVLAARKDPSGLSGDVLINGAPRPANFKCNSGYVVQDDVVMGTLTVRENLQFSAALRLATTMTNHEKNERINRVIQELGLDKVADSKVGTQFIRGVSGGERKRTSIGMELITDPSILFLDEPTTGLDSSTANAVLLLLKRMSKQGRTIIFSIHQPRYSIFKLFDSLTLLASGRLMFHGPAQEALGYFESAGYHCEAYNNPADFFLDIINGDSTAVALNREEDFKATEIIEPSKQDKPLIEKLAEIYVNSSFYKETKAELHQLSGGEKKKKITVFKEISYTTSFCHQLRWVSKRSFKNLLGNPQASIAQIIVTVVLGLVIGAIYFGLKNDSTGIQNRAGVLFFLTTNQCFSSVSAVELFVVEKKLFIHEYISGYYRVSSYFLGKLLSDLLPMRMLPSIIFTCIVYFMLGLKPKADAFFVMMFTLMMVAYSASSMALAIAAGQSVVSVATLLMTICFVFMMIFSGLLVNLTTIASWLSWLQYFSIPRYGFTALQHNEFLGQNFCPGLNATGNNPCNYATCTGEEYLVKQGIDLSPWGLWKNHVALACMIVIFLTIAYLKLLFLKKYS

[25] = target: T11, DNA repair and recombination protein RAD54-like (Homo sapiens, UniProt Q92698); test: inhibitors of human RAD54 branch migration, confirmation, biochemical, fluorescence, cherry-picked samples, dose series (AID 651657); type: functional
T11 sequence (Q92698 whole entry): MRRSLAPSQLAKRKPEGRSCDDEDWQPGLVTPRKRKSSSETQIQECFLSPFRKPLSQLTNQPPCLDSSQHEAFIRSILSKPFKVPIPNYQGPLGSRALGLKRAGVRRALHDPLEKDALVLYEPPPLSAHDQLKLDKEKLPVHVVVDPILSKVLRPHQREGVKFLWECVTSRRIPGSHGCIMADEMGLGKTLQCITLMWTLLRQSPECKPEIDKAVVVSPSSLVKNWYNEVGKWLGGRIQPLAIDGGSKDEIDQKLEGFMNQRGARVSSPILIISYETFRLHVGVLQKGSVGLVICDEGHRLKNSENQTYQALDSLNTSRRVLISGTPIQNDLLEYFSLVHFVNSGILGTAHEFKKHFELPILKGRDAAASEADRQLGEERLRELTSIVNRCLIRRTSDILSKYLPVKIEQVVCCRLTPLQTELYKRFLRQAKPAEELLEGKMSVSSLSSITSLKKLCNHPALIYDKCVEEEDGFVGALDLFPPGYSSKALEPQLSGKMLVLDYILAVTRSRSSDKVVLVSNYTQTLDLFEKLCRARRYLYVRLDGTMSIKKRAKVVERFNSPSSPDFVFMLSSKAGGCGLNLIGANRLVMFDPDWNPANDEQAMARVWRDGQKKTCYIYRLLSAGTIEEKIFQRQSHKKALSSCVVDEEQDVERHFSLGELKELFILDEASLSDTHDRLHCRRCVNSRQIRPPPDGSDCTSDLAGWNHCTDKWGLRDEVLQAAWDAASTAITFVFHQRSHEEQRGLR

[26] = target: Protein S100-A4 (Homo sapiens, UniProt P26447); test: S100A4-myosin IIA binding inhibitor potency, dose response, biochemical, fluorescence polarization, cherry-picked hits (AID 687001); type: functional
Chain of Protein S100-A4 (P26447 whole entry): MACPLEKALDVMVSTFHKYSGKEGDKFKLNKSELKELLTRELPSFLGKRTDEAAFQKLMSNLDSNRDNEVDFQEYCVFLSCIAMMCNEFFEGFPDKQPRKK

[27] = target: T12, DNA repair protein RAD52 homolog (Homo sapiens, UniProt P43351); type: functional, biochemical
T12 sequence (P43351 whole entry): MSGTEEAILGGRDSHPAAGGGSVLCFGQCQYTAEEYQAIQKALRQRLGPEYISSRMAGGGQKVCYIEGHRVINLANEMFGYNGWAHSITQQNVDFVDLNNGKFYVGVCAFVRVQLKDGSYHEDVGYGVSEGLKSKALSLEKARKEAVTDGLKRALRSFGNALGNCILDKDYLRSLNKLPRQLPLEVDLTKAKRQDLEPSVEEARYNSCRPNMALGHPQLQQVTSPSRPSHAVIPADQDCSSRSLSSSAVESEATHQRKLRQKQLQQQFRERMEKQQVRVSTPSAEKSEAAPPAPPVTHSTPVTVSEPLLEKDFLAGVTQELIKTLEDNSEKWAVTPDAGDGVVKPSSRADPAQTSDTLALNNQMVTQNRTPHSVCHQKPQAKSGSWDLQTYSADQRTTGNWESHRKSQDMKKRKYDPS

T1 sequence (P51452 whole entry): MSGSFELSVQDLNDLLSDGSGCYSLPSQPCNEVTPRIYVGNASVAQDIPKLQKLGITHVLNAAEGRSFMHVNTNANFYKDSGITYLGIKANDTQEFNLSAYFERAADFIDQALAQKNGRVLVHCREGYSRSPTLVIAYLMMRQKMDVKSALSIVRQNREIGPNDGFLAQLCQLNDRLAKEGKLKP

## Cc1c(CCC(=O)O)c(=O)oc2c(C)c(OCc3cc4c(cc3Cl)OCO4)ccc12
[1]
  IC50: 17.4 µM (active)
[2]
  IC50: 2.99 µM (active)
[3]
  IC50: 78.7 µM (active)
[4]
  IC50: 51.7 µM (active)
[5]
  IC50: 3.17 µM (active)
[6]
  IC50: 1.51 µM (active)
[7]
  IC50: 3.97 µM (active)
[8]
  IC50: 1.67 µM (active)
[9]
  IC50: > 66.6 µM (inactive)
[10]
  IC50: 8.04 µM (active)
[11]
  IC50: 10.3 µM (active)
[12]
  IC50: 9 µM (active)
[13]
  IC50: 24.9 µM (inactive)
[14]
  AC50: 7.15 µM (active)

## CCCCn1c(-c2ccoc2C)n[nH]c1=S
[15]
  IC50: > 59.6 µM (inactive)
[16]
  IC50: > 59.6 µM (inactive)
[17]
  IC50: > 59.6 µM (inactive)

## O=C1C2C(c3ccccc3)C=CC(c3ccccc3)C2C(=O)N1c1ccccn1 (configuration not stated)
[18]
  IC50: 59.6 µM (inactive)
[19]
  IC50: 11.5 µM (inactive)
[20]
  IC50: > 59.6 µM (inactive)
[21]
  IC50: 10.8 µM (active)
[22]
  IC50: 7.9 µM (active)

## COc1ccc(/C=N/NC(=O)c2ccccc2F)cc1CN1CCN(c2ccc(F)cc2)CC1
[23]
  EC50: 3.08 µM (active)
[24]
  EC50: 4.07 µM (active)

## Cc1cccc(-c2cc(N3CCCN(C)CC3)n3nccc3n2)c1
[25]
  AC50: 24 µM (active)
[26]
  AC50: 7.12 µM (active)
[27]
  AC50: 2.45 µM (active)
